US20070014845A1, “Liposomal delivery vehicle for hydrophobic drugs” (priority 2005, published 2007)

Legend:
[1] = cited from earlier work
[2] = Solubility of RWJ-416457 in hydroxypropyl-β-cyclodextrin and sulfobutylether-β-cyclodextrin solutions (HPLC); type: physicochemical
Description: Various liposomal formulations were prepared to perform supporting and illustrative studies. […] The solubility of the drug in the cyclodextrin solutions was determined.
The solubility of an antimicrobial oxazolidinone drug identified as RWJ-416457 in 40 w/v % hydroxylpropyl-β-cyclodextrin and in 20 w/v % sulfobutylether-β-cyclodextrin under various conditions of pH, temperature, and incubation time was determined as follows. About 15 mgs of drug was added to 5 mL of each cyclodextrin solution followed by incubation under one of three conditions: (1) with stirring at 45° C. for 2 hours; (2) with stirring at 45° C. for 2 hours followed by stirring at room temperature (25° C.) for 3 days; or (3) with stirring at room temperature (25° C.) for 3 days. After incubation, any non-solubilized drug crystals were removed either by centrifugation using a bench top centrifuge at 3000 rpm or by filtration using a hand-held syringe with a filter with 0.2 μm pore size. The drug concentration of the supernatant or the filtrate was then determined by high performance liquid chromatography (HPLC).

[3] = Drug concentration of filtered drug/cyclodextrin hydration solutions (HPLC); type: physicochemical; conditions: for drug concentration of filtered cyclodextrin solution: 10 mM histidine, 15 mM NaCl, pH 6.8, incubated 45° C. for 2 hours; for final drug concentration assayed by HPLC: 50 w/v % hydroxypropyl-β-cyclodextrin
Description: A similar solution containing 30% cyclodextrin was prepared by dissolving 30 g of hydroxypropyl-β-cyclodextrin in a 100 mL of water. The solution also contained 10 mM histidine and 15 mM NaCl. The final osmolality was 451 mOsm/kg (Wescor Osmometer) and the pH was 6.8. Drug (RWJ-425457) was added to the cyclodextrin solution, incubated (45° C. for 2 hours), and filtered, to yield a drug concentration of 9.9 mg/mL.
A similar solution containing 20% cyclodextrin was prepared by dissolving 20 g of hydroxypropyl-β-cyclodextrin in a 100 mL of buffer (10 mM histidine and 15 mM NaCl). The final osmolality was 199 mOsm/kg (Wescor Osmometer) and the pH was 6.8. Drug (RWJ-425457) was added to the cyclodextrin solution, incubated (45° C. for 2 hours) and filtered, to yield a drug concentration of 4.8 mg/mL.
A liposome formulation with no cholesterol, formulation no. 11, was also prepared as follows. A lipid mixture of HSPC/mPEG-DSPE 95:5 mol/mol (11.3 g HSPC and 2.1 g mPEG-DSPE) was solubilized in 10 mL ethanol at about 65 ° C. A 50% hydroxypropyl-β-cyclodextrin solution was made by solubilizing 50 g of the cyclodextrin in a total volume of 100 mL water. The osmolality was 720 mOsm/kg and the pH was 7.4. In a separate container 1.004 g of drug (RWJ416457) was placed in 100 mL of the 50 w/v % cyclodextrin solution. The mixture was stirred for 1 hour at 45° C. and then 3 hours at room temperature followed by filtration to removw any un-dissolved drug in the solution. The final drug concentration assayed by HPLC was 7.58 mg/mL and the osmolality of the hydration medium was 771 mOsm/kg. The lipid solution was then mixed with 90 mL of the drug/cyclodextrin solution (pre-warmed to 65° C.) followed by stirring at 65° C. for 1 hour to form a suspension of liposomes, identified as formulation no. 11.
A 50% hydroxypropyl-β-cyclodextrin solution was made by solubilizing 50.0 g of the cyclodextrin in a total volume of 100 mL water. The final osmolality was 720 mOsm/kg (Wescor Osmometer) and the pH was 7.4. In a separate container 1.004 g of drug (RWJ416457) was placed in 100 mL of the 50 w/v % cyclodextrin solution. The mixture was stirred for 4 hours at room temperature followed by filtration to remove any drug in the external solution. The final drug concentration assayed by HPLC was 7.58 mg/mL and osmolality was 771 mOsm/kg.

2-Hydroxypropyl-β-cyclodextrin
Solubility in water [1]: >600000 µg/mL

2-Hydroxypropyl-γ-cyclodextrin
Solubility in water [1]: >500000 µg/mL

β-Cyclodextrin sulfobutyl ether sodium salt
Solubility in water [1]: >500000 µg/mL

Randomly Methylated β-cyclodextrin
Solubility in water [1]: >500000 µg/mL

CC(=O)NC[C@H]1CN(c2ccc(N3Cc4cn(C)nc4C3)c(F)c2)C(=O)O1 [RWJ-416457]
Solubility of RWJ-416457 ([2]; Sample 1, pH 8.54, HP-β-CD 40%, 3 days RT, Filter): 8130 µg/mL | Solubility of RWJ-416457 ([2]; Sample 2, pH 8.54, HP-β-CD 40%, 45° C. 2 hrs + 3 days RT, Filter): 9460 µg/mL | Solubility of RWJ-416457 ([2]; Sample 2, pH 8.54, HP-β-CD 40%, 45° C. 2 hrs, Centrifuge): 9370 µg/mL | Solubility of RWJ-416457 ([2]; Sample 2, pH 8.54, HP-β-CD 40%, 45° C. 2 hrs, Filter): 9260 µg/mL | Solubility of RWJ-416457 ([2]; Sample 3, pH 3.21, HP-β-CD 40%, 3 days RT, Filter): 7600 µg/mL | Solubility of RWJ-416457 ([2]; Sample 4, pH 3.21, HP-β-CD 40%, 45° C. 2 hrs + 3 days RT, Filter): 9080 µg/mL | Solubility of RWJ-416457 ([2]; Sample 4, pH 3.21, HP-β-CD 40%, 45° C. 2 hrs, Centrifuge): 9230 µg/mL | Solubility of RWJ-416457 ([2]; Sample 4, pH 3.21, HP-β-CD 40%, 45° C. 2 hrs, Filter): 9160 µg/mL | Solubility of RWJ-416457 ([2]; Sample 5, pH 4.58, HP-β-CD 40%, 3 days RT, Filter): 7210 µg/mL | Solubility of RWJ-416457 ([2]; Sample 6, pH 4.58, HP-β-CD 40%, 45° C. 2 hrs + 3 days RT, Filter): 9100 µg/mL | Solubility of RWJ-416457 ([2]; Sample 6, pH 4.58, HP-β-CD 40%, 45° C. 2 hrs, Centrifuge): 9170 µg/mL | Solubility of RWJ-416457 ([2]; Sample 6, pH 4.58, HP-β-CD 40%, 45° C. 2 hrs, Filter): 9160 µg/mL | Solubility of RWJ-416457 ([2]; Sample 7, pH 6.94, SBE-β-CD 20%, 45° C. 2 hrs + 3 days RT, Filter): 4450 µg/mL | Solubility of RWJ-416457 ([2]; Sample 7, pH 6.94, SBE-β-CD 20%, 45° C. 2 hrs, Centrifuge): 4750 µg/mL | Solubility of RWJ-416457 ([2]; Sample 7, pH 6.94, SBE-β-CD 20%, 45° C. 2 hrs, Filter): 4550 µg/mL | drug solubility ([2]; in 20% sulfobutylether-β-cyclodextrin (summary of Example 1A)): above 4.5 mg/mL | solubility ([2]; in 20 w/v % sulfobutylether-β-cyclodextrin at 45° C.): about 4.5 mg/mL | drug solubility ([2]; in 40 w/v % hydroxypropyl-β-cyclodextrin (summary of Example 1A)): above 9 mg/mL | solubility ([2]; in 40 w/v % hydroxypropyl-β-cyclodextrin at 45° C.): about 9.1 mg/mL | solubility ([2]; in 40 w/v % hydroxypropyl-β-cyclodextrin at room temperature): about 7.6 mg/mL | drug concentration of filtered cyclodextrin solution ([3]; 20% hydroxypropyl-β-cyclodextrin): 4800 µg/mL | drug concentration of filtered cyclodextrin solution ([3]; 30% hydroxypropyl-β-cyclodextrin): 9900 µg/mL | final drug concentration assayed by HPLC ([3]; stirred 1 hour at 45° C. then 3 hours at room temperature): 7.58 mg/mL | final drug concentration assayed by HPLC ([3]; stirred 4 hours at room temperature): 7.58 mg/mL

OC[C@H]1O[C@@H]2O[C@H]3[C@H](O)[C@@H](O)[C@@H](O[C@H]4[C@H](O)[C@@H](O)[C@@H](O[C@H]5[C@H](O)[C@@H](O)[C@@H](O[C@H]6[C@H](O)[C@@H](O)[C@@H](O[C@H]7[C@H](O)[C@@H](O)[C@@H](O[C@H]8[C@H](O)[C@@H](O)[C@@H](O[C@H]9[C@H](O)[C@@H](O)[C@@H](O[C@H]%10[C@H](O)[C@@H](O)[C@@H](O[C@H]1[C@H](O)[C@H]2O)O[C@@H]%10CO)O[C@@H]9CO)O[C@@H]8CO)O[C@@H]7CO)O[C@@H]6CO)O[C@@H]5CO)O[C@@H]4CO)O[C@@H]3CO [δ-cyclodextrin]
water solubility (at 25° C., g/100 mL) ([1]; at 25° C.): 8.19 g/100 mL
